The target of assay [1] is EGFR WT (Homo sapiens, UniProt P00533). As to the kind of experiment: TR-FRET inhibition of kinase activity of wild type EGFR. The format is biochemical. From the text:
Determination of the Inhibitory Effect of the Compound of the Present Invention on the Kinase Activity of Wild Type EGFR
Experimental objective: The objective of this test example is to determine the inhibitory effect of the compound on the kinase activity of wild type EGFR.
(§1) Experimental process: The experiment applied the TR-FRET (time-resolved fluorescence resonance energy transfer) method to study the inhibitory effect of the compound on the kinase activity of wild type EGFR. The experiment was carried out in a 384-well plate. Experimental buffer (50 mM HEPES, 1 mM EGTA, 10 mM MgCl2, 2 mM DTT, 0.01% Tween-20) was formulated. The compound was diluted in gradient to different concentrations with the experimental buffer. 2 μL of the solution was added to each well of the 384-well plate. 4 μL of diluted EGFR kinase solution (0.001-0.5 nM) was added, and the plate was incubated at room temperature for 10 minutes. 4 μL of ULight-poly GT/ATP mixed solution was added, and the plate was incubated at room temperature for 30 to 60 minutes. 5 μL of EDTA stop solution and 5 μL of Eu-labeled antibody detection solution were added, and the plate was incubated at room temperature for 1 hour.
(§2) Experimental Data Processing Method:
(§3) The concentration and inhibition rate were fitted to a nonlinear regression curve by Graphpad Prism software to obtain the IC50 value.

The subject of assay [2] is A431 cell line. In words: Proliferation of A431 cell line (CellTiter-Glo). The class given is cell-based. Particulars: Homo sapiens, A-431, 72 h. As to the method:
Test Example 3. Determination of the Inhibitory Effect of the Compound of the Present Invention on the Proliferation of Ba/F3 EGFR Mutant Cell Line and A431 Cell Line
(§4) Experimental objective: The objective of this test example is to determine the inhibitory effect of the compound on the proliferation of Ba/F3 EGFR mutant cell line and A431 cell line
(§5) Experimental instruments: Microplate reader (BioTek Synergy H1), pipette (Eppendorf & Rainin).
(§6) A431 cells were cultured, and harvested after reaching a suitable density. The cells were adjusted to an appropriate cell concentration with the complete medium. The cell suspension were spread on a 96-well plate (90 μL per well), and the plate was placed in a 37° C., 5% CO2 incubator overnight to let the cells adhere to the wall. Solutions of the compound at different concentrations were formulated with DMSO and culture medium. Solvent control was set. The solution of the compound was added to the 96-well plate (10 L per well), and the plate was incubated in the 37° C., 5% CO2 incubator for 72 h. CellTiter-Glo solution was added and mixed well by shaking, and the plate was incubated in the dark for 10 minutes. The values were measured by BioTek Synergy H1 microplate reader.
as §2
(§7) The inhibition rate was calculated using the […] signal value. The concentration and inhibition rate were fitted to a nonlinear regression curve by Graphpad Prism software to obtain the IC50 value.
In general terms: ATP-based viability assays read luminescence as a measure of living cells.

Assay [3] concerns the target Ba/F3 EGFR-D770-N771ins_SVD (Homo sapiens, UniProt P00533, DUP768-770, cells depend on it). As to the kind of experiment: Proliferation of Ba/F3 EGFR mutant cell line (CellTiter-Glo). The format is cell-based, mouse. Particulars: 72 h to 144 h, read-out: Ba/F3 EGFR-D770-N771ins_SVD IC50. On the procedure: Determination of the Inhibitory Effect of the Compound of the Present Invention on the Proliferation of Ba/F3 EGFR Mutant Cell Line and A431 Cell Line
as §4, §5
as §6, with “Ba/F3 EGFR mutant” for “A431”, “The solution of the compound was added to the 96-well plate (10 L per well), and the plate was incubated in the 37° C., 5% CO2 incubator for 72 h.” left out
as §2, §7

Assay [4] has as its target EGFR D770_N771insNPG (Homo sapiens, UniProt P00533, INS770NPG). As to the kind of experiment: TR-FRET inhibition of kinase activity of EGFR exon 20 insertion mutation. The class given is biochemical.
Text: Determination of the Inhibitory Effect of the Compound of the Present Invention on the Kinase Activity of EGFR Exon 20 Insertion Mutation
Experimental objective: The objective of this test example is to determine the inhibitory effect of the compound on the kinase activity of EGFR exon 20 insertion mutation.
as §1, with “of EGFR exon 20 insertion mutation.” for “of wild type EGFR.”, “buffer. 2.5” for “buffer. 2”, “plate. 2.5” for “plate. 4”, “minutes. 5” for “minutes. 4”
as §2, §3
A general note: In TR-FRET formats the signal depends on donor and acceptor labels being close together.

As a reminder, the IC50 is the concentration at which inhibition is half-maximal.

Molecules are shown by their SMILES.

EGFR D770_N771insNPG, sequence (P00533 with tags, fused parts or gaps INS770NPG limits assumed): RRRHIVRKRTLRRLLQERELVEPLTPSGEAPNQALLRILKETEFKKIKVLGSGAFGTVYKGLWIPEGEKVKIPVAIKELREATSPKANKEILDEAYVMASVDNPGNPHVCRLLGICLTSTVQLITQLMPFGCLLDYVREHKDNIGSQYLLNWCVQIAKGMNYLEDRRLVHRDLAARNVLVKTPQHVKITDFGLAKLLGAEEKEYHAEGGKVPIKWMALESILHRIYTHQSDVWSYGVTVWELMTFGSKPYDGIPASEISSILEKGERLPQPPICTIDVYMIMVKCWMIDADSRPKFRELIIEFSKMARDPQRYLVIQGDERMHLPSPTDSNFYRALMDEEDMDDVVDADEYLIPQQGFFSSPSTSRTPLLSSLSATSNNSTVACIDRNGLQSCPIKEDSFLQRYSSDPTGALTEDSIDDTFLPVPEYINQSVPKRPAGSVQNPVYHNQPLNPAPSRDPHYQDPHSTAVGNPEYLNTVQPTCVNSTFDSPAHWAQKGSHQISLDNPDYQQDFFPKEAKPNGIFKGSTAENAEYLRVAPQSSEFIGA
Ba/F3 EGFR-D770-N771ins_SVD, sequence (P00533 with tags, fused parts or gaps DUP768-770): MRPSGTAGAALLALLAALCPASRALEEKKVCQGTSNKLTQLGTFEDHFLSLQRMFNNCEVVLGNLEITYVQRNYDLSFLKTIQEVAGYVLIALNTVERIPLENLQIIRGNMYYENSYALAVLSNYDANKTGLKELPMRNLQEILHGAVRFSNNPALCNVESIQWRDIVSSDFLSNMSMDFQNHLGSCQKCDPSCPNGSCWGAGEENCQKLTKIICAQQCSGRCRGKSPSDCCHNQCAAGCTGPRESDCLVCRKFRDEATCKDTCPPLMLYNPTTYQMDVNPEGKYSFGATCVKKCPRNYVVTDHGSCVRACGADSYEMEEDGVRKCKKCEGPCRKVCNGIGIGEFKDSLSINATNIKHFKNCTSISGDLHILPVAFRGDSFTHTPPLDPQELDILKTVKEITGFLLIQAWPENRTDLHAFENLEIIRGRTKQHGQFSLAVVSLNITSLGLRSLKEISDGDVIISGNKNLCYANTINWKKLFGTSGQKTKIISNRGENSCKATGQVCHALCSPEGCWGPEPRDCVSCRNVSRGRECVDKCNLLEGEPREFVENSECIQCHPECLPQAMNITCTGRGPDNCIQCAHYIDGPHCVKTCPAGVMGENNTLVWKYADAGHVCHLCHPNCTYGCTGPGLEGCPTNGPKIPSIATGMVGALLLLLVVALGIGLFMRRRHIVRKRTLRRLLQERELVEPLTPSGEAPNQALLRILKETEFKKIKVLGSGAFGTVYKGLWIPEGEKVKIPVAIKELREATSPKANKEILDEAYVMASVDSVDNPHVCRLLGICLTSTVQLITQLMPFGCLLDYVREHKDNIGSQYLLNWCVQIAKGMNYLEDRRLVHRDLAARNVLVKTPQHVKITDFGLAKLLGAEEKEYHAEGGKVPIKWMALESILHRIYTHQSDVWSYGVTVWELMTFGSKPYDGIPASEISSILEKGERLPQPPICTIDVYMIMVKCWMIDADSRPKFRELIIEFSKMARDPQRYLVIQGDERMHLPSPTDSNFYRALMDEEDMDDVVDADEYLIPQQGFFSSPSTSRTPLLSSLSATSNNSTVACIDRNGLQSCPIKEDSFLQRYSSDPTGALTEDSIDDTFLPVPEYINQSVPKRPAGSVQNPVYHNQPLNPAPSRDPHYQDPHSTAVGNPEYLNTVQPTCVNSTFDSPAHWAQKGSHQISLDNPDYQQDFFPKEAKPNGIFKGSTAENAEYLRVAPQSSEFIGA
EGFR WT, sequence (P00533 25-1210): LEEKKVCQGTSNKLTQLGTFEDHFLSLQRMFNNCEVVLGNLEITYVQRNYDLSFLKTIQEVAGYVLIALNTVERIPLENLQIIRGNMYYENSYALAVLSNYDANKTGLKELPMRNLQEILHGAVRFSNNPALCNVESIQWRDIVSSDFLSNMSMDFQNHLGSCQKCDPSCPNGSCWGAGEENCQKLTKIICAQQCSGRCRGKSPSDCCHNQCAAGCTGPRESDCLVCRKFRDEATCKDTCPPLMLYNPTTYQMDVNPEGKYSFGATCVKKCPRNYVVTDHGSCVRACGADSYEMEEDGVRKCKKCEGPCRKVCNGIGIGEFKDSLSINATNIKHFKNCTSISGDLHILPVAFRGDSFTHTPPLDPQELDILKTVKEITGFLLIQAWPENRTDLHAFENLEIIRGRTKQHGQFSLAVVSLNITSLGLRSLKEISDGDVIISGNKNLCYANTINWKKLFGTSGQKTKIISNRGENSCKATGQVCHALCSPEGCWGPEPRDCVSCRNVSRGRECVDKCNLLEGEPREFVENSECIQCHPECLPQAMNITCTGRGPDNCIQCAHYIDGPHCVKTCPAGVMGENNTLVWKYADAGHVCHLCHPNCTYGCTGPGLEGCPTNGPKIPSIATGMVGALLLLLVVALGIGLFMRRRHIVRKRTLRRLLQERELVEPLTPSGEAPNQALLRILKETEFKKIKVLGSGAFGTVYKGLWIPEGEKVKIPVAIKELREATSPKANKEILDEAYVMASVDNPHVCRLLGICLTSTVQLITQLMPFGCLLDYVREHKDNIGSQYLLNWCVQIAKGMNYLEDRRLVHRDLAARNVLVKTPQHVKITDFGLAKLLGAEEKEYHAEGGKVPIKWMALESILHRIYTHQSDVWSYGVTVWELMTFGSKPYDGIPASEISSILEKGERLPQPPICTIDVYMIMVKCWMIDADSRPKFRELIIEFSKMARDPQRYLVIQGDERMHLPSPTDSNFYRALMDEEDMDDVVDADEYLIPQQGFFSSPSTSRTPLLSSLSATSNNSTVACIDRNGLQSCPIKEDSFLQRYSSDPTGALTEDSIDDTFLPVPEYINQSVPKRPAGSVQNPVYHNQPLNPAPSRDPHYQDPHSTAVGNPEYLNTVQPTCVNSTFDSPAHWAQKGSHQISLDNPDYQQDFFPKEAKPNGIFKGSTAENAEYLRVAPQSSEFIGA

In assay [1], `C=CC(=O)Nc1cc(Nc2ncc(C(=O)NCc3ccccc3)c(-c3cn(C)c4ccccc34)n2)c(OC)cc1N(C)CCN(C)C` [Example 33, 2-((5-Acrylamido-4-((2-(dimethylamino)ethyl)(methyl)amino)-2-methoxyphenyl)amino)-N-benzyl-4-(1-methyl-1H-indol-3-yl)pyrimidine-5-carboxamide] had an IC50 of 133 nM.

`C=CC(=O)Nc1cc(Nc2ncc(C(F)(F)F)c(-c3cn(C4CC4)c4ccccc34)n2)c(OC)cc1N1C[C@H]2CN(C)C[C@H]2C1` [Example 27, N-(5-((4-(1-Cyclopropyl-1H-indol-3-yl)-5-(trifluoromethyl)pyrimidin-2-yl)amino)-4-methoxy-2-((3aR,6aS)-5-methylhexahydropyrrolo[3,4-c]pyrrol-2(1H)-yl)phenyl)acrylamide]: the half-maximal inhibitory concentration (IC50) in assay [1] is 121 nM.

In assay [1], `C=CC(=O)Nc1cc(Nc2ncc(C(=O)OC)c(-c3cn(C)c4ccccc34)n2)c(OC)cc1N1C[C@@H]2C[C@H]1CN2C` [Example 25, Methyl 2-((5-acrylamido-2-methoxy-4-((1S,4S)-5-methyl-2,5-diazabicyclo[2.2.1]heptan-2-yl)phenyl)amino)-4-(1-methyl-1H-indol-3-yl)pyrimidine-5-carboxylate] came in with an IC50 of 89.8 nM.

The compound `C=CC(=O)Nc1cc(Nc2ncc(C(=O)NCc3ccc(F)cc3)c(-c3cn(C)c4ccccc34)n2)c(OC)cc1N(C)CCN(C)C` [Example 142, 2-((5-Acrylamido-4-((2-(dimethylamino)ethyl)(methyl)amino)-2-methoxyphenyl)amino)-N-(4-fluorobenzyl)-4-(1-methyl-1H-indol-3-yl)pyrimidine-5-carboxamide] returned an IC50 in assay [1] of 133 nM.

`C=CC(=O)Nc1cc(Nc2ncc(C(=O)N(C)C)c(-c3cn(C)c4ccccc34)n2)c(OC)cc1N1C[C@H]2CN(C)C[C@H]2C1` [Example 31, 2-((5-Acrylamido-2-methoxy-4-((3aR,6aS)-5-methylhexahydropyrrolo[3,4-c]pyrrol-2(1H)-yl)phenyl)amino)-N,N-dimethyl-4-(1-methyl-1H-indol-3-yl)pyrimidine-5-carboxamide] came in with an IC50 in assay [1] of over 1000 nM.

`C=CC(=O)Nc1cc(Nc2ncc(C#N)c(-c3cn(C4CC4)c4cccc(F)c34)n2)c(OC)cc1N(C)CCN(C)C` [Example 120, N-(5-((5-Cyano-4-(1-cyclopropyl-4-fluoro-1H-indol-3-yl)pyrimidin-2-yl)amino)-2-((2-(dimethylamino)ethyl)(methyl)amino)-4-methoxyphenyl)acrylamide]: in assay [1], the IC50 was over 1000 nM.

For the compound `C=C(F)C(=O)Nc1cc(Nc2ncc(-c3ncco3)c(-c3cn(C4CC4)c4ccccc34)n2)c(OC)cc1N1CC(N(C)C)C1` [Example 66, N-(5-((4-(1-Cyclopropyl-1H-indol-3-yl)-5-(oxazol-2-yl)pyrimidin-2-yl)amino)-2-(3-(dimethylamino)azetidin-1-yl)-4-methoxyphenyl)-2-fluoroacrylamide], it took 50.8 nM to reach half-maximal inhibition in assay [1] (IC50).

`C=CC(=O)Nc1cc(Nc2ncc(-c3cccs3)c(-c3cn(C4CC4)c4ccccc34)n2)c(OC)cc1N1C[C@H]2CN(C)C[C@H]2C1` [Example 46, N-(5-((4-(1-Cyclopropyl-1H-indol-3-yl)-5-(thiophen-2-yl)pyrimidin-2-yl)amino)-4-methoxy-2-((3aR,6aS)-5-methylhexahydropyrrolo[3,4-c]pyrrol-2(1H)-yl)phenyl)acrylamide] gave an IC50 in assay [1] of 72.7 nM.

In assay [1], `C=CC(=O)Nc1cc(Nc2ncc(Br)c(-c3cn(C4CC4)c4ccccc34)n2)c(OC)cc1N1C[C@H]2CN(C)C[C@H]2C1` [Example 28, N-(5-((5-Bromo-4-(1-cyclopropyl-1H-indol-3-yl)pyrimidin-2-yl)amino)-4-methoxy-2-((3aR,6aS)-5-methylhexahydropyrrolo[3,4-c]pyrrol-2(1H)-yl)phenyl)acrylamide] yielded an IC50 of 63.3 nM.

As for `C=CC(=O)Nc1cc(Nc2ncc(C#N)c(-n3nc(C)c4ccccc43)n2)c(OC)cc1N(C)CCN(C)C` [Example 138, N-(5-((5-Cyano-4-(3-methyl-1H-indazol-1-yl)pyrimidin-2-yl)amino)-2-((2-(dimethylamino)ethyl)(methyl)amino)-4-methoxyphenyl)acrylamide], the concentration for half-maximal inhibition (IC50) in assay [1] was over 1000 nM.

For `CC#CC(=O)Nc1cc(Nc2ncc(C(F)(F)F)c(-c3cn(C4CC4)c4ccccc34)n2)c(OC)cc1N1C[C@H]2CN(C)C[C@H]2C1` [Example 30, N-(5-((4-(1-Cyclopropyl-1H-indol-3-yl)-5-(trifluoromethyl)pyrimidin-2-yl)amino)-4-methoxy-2-((3aR,6aS)-5-methylhexahydropyrrolo[3,4-c]pyrrol-2(1H)-yl)phenyl)but-2-ynamide], in assay [1], 453 nM corresponded to half-maximal inhibition (IC50).

In the case of `C=CC(=O)Nc1cc(Nc2ncc(C#N)c(-c3cn(C4CC4)c4ccccc34)n2)c(OC)cc1N1CC[C@@H](N(C)C)C1` [Example 78, (R)—N-(5-((5-Cyano-4-(1-cyclopropyl-1H-indol-3-yl)pyrimidin-2-yl)amino)-2-(3-(dimethylamino)pyrrolidin-1-yl)-4-methoxyphenyl)acrylamide], the 50% inhibitory concentration (IC50) in assay [2] worked out at 258 nM; in assay [4], 0.5 nM. The GI50 in assay [3] was 48.2 nM.

For `C=CC(=O)Nc1cc(Nc2ncc(C#N)c(-c3cn(C4COC4)c4ccccc34)n2)c(OC)cc1N(C)CCN(C)C` [Example 111, N-(5-((5-cyano-4-(1-(oxetan-3-yl)-1H-indol-3-yl)pyrimidin-2-yl)amino)-2-((2-(dimethylamino)ethyl)(methyl)amino)-4-methoxyphenyl)acrylamide], the concentration for half-maximal inhibition (IC50) amounted to 34.1 nM in assay [2] and 0.18 nM in assay [4]. In addition, the GI50 in assay [3] is 21.2 nM.

On to `C=CC(=O)Nc1cc(Nc2ncc(C#N)c(-c3cn(C4CC4)c4ccccc34)n2)c(OC)cc1N1C[C@H]2CCN(C)[C@H]2C1` [Example 109, N-(5-((5-Cyano-4-(1-cyclopropyl-1H-indol-3-yl)pyrimidin-2-yl)amino)-4-methoxy-2-((3aR,6aR)-1-methylhexahydropyrrolo[3,4-b]pyrrol-5(1H)-yl)phenyl)acrylamide], for which the concentration for half-maximal inhibition (IC50) in assay [2] came to 168 nM; in assay [4], 0.78 nM. For the same compound, in assay [3], the GI50 was found to be 49.1 nM.

For the compound `C=CC(=O)Nc1cc(Nc2ncc(-c3ncco3)c(-c3cn(C4CC4)c4ccccc34)n2)c(OC)cc1N1CC(N(C)C)C1` [Example 52, N-(5-((4-(1-Cyclopropyl-1H-indol-3-yl)-5-(oxazol-2-yl)pyrimidin-2-yl)amino)-2-(3-(dimethylamino)azetidin-1-yl)-4-methoxyphenyl)acrylamide], the IC50 in assay [2] amounted to 306 nM; in assay [4] it was 0.79 nM. For the same compound, the GI50 in assay [3] was determined as 34.9 nM.
